One assay concerns the target T1, LonP1 F547A/C637V (Homo sapiens, UniProt P36776, C637V/F547A).
T1 construct: hexa-histidine (N); made in house; host or cells: Rosetta 2 E. coli
T1 sequence (P36776 68-959 F547A/C637V): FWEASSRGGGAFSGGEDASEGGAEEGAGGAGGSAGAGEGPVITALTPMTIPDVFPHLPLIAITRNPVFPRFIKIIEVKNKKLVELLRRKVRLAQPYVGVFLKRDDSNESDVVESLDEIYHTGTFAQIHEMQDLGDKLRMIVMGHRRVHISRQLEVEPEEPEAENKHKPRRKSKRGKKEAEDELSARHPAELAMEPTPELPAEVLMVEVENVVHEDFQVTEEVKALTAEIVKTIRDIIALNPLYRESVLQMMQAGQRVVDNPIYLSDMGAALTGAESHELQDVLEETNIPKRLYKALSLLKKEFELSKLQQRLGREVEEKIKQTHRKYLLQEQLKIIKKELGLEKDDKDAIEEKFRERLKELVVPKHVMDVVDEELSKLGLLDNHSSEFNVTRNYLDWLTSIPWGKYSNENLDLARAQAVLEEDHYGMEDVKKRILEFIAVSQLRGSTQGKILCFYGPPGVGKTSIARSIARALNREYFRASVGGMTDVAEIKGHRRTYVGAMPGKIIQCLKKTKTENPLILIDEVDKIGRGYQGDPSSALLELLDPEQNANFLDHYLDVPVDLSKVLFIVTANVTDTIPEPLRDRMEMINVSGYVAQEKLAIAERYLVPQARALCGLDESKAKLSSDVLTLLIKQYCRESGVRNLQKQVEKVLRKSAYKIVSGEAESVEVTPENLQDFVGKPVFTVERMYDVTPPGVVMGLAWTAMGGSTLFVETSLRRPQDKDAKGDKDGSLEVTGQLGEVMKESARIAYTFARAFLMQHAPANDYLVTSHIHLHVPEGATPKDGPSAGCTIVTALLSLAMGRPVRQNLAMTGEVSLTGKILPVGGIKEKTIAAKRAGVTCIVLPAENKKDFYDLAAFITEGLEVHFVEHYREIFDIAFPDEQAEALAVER
Put plainly: Endpoint ATPase assay, LonP1 F547A/C637V. It counts as biochemical. The procedure: (§1) Human mitochondrial LonP1 and mutants lacking the predicted mitochondrial targeting sequence were fused to an N-terminal hexa-histidine affinity tag, expressed in Rosetta 2 E. Coli, and purified using a nickel agarose column as previously described ([72]) and protein concentration and buffer exchange carried out using Amicon Ultra centrifugal filtration. LonP1 mutant constructs were obtained from the PCR-based QuikChange Site-Directed Mutagenesis Kit.
(§2) ADP-Glo (Promega) assays were performed according to the manufacturer's protocols. Purified wild-type or mutant LonP1 (400 nM monomer), the 26S proteasome (3 nM), or no enzyme controls were preincubated in 96-well plates (60 min, 25 °C) with ten different concentrations of CDDO and its derivatives, TP-82, enoxolone (5 μM) or DMSO vehicle control in buffer (40 mM Tris-HCl (pH 7.5), 20 mM MgCl2, 0.1 mg/ml BSA and 5% DMSO). The 26S and 20S proteasome were also assayed at 0, 0.75, 1.5, 3, 6, and 12 nM in the absence of CDDO derivatives. […] Assay reagents were used to quench further ATPase activity and generate luminescence signals proportional to the concentration of ADP formed. Background (no enzyme control) luminescence values were subtracted, and resultant values were reported as a percentage of the no drug control (100%). […]

For another assay, the target named is T2, LonP1 F547A/C576V (Homo sapiens, UniProt P36776, C576V/F547A).
T2 construct: hexa-histidine (N); made in house; host or cells: Rosetta 2 E. coli
T2 sequence (P36776 68-959 F547A/C576V): T1 sequence (P36776 68-959 F547A/C637V) with C509V, V570C
Put plainly: Endpoint ATPase assay, LonP1 F547A/C576V. It is filed as biochemical. As to the method:
as §1, §2

[1] abbreviates: end-point ATPase assay, read-out: CDDO IC50.

Numbering of substitutions follows the chain as printed.

The IC50 is the concentration needed to halve the response being measured. For the compound `CC1(C)CC[C@]2(C(=O)O)CC[C@]3(C)[C@H](C(=O)C=C4[C@@]5(C)C=C(C#N)C(=O)C(C)(C)[C@@H]5CC[C@]43C)[C@@H]2C1` [CDDO, 2-cyano-3,12-dioxooleana-1,9(11)-dien-28-oic acid], the “Fold increase in inhibition compared with WT” value was determined as 7.4 on LonP1 F547A/C637V and 7.8 at LonP1 F547A/C576V. Besides, the IC50 at LonP1 F547A/C637V (setting [1]) came to 1900 ± 300 nM; on LonP1 F547A/C576V (setting [1]), 1800 ± 800 nM.
